Assay results: patent US20260013501A1, “HERBICIDAL DERIVATIVES” (SYNGENTA CROP PROTECTION AG, priority 2022, published 2026)

What was measured:
Format in all cases: in vivo
[1] = tested on: Echinochloa crus-galli (ECHCG); test: Pre-emergence Test (Table B1), ECHCG; conditions: evaluated after 13 days
[2] = tested on: Amaranthus retoflexus (AMARE); test: Post-emergence Test (Table B2), AMARE; set-up: key: five-point scale: 5=81-100%, 4=61-80%, 3=41-60%, 2=21-40%, 1=0-20% damage; conditions: evaluated after 13 days
Experimental: (§1) Seeds of a variety of test species are sown in standard soil in pots (Ipomoea hederacea (IPOHE), Zea mays (ZEAMX), Echinochloa crus-galli (ECHCG), Amaranthus palmeri (AMAPA), (Amaranthus retoflexus (AMARE), and (Setaria faberi (SETFA)). After 8 days cultivation under controlled conditions in a glasshouse (at 24° C./16° C., day/night; 14 hours light; 65% humidity), the plants are sprayed with an aqueous spray solution derived from the formulation of the technical active ingredient in acetone/water (50:50) solution containing 0.5% Tween 20 (polyoxyethelyene sorbitan monolaurate, CAS RN 9005-64-5). Rate of application is shown in g/ha in the tables below. The test plants are then grown in a glasshouse under controlled conditions in a glasshouse (at 24° C./16° C., day/night; 14 hours light; 65% humidity) and watered twice daily. After 13 days the test is evaluated for the percentage damage caused to the plant. The biological activities are shown in the following table on a five-point scale (5=81-100%; 4=61-80%; 3=41-60%; 2=21-40%; 1=0-20%; -=not tested).

Zea mays (ZEAMX) [3] = test: Pre-emergence Test (Table B1), ZEAMX; conditions: evaluated after 13 days
[4] = tested on: Ipomoea hederacea (IPOHE); test: Pre-emergence Test (Table B1), IPOHE; conditions: evaluated after 13 days
[5] = tested on: Amaranthus palmeri (AMAPA); test: Pre-emergence Test (Table B1), AMAPA; conditions: evaluated after 13 days
[6] = tested on: Amaranthus retoflexus (AMARE); test: Pre-emergence Test (Table B1), AMARE; conditions: evaluated after 13 days
[7] = tested on: Amaranthus palmeri (AMAPA); test: Post-emergence Test (Table B2), AMAPA; set-up: key: five-point scale: 5=81-100%, 4=61-80%, 3=41-60%, 2=21-40%, 1=0-20% damage; conditions: rate 250 g/Ha, evaluated after 13 days
Experimental: as §1

[8] = tested on: Echinochloa crus-galli (ECHCG); test: Post-emergence Test (Table B2), ECHCG; set-up: key: 5-point damage scale: 5=81-100%, 4=61-80%, 3=41-60%, 2=21-40%, 1=0-20%; conditions: evaluated after 13 days
Experimental: as §1

Zea mays (ZEAMX) [9] = test: Post-emergence Test (Table B2), ZEAMX; set-up: key: 5-point damage scale: 5=81-100%, 4=61-80%, 3=41-60%, 2=21-40%, 1=0-20%; conditions: evaluated after 13 days
Experimental: as §1

CCn1c(Cc2ccccc2)cc(=O)c(C(=O)O)c1-c1ccc(Cl)c(Cl)c1 [Compound 3, 6-benzyl-2-(3,4-dichlorophenyl)-1-ethyl-4-oxo-pyridine-3-carboxylic acid]
0: Pre-emergence Test, percentage damage caused to the plant (five-point scale), ECHCG ([1]; Rate 1000 g/Ha) | percentage damage caused to the plant, AMARE ([2]; rate 1000 g/Ha) | Pre-emergence Test, percentage damage caused to the plant (five-point scale), ZEAMX (Zea mays (ZEAMX) [3]; Rate 1000 g/Ha) | Pre-emergence Test, percentage damage caused to the plant (five-point scale), IPOHE ([4]; Rate 1000 g/Ha)

CCn1c(Cc2ccc(C(F)(F)F)cc2)cc(=O)c(C(=O)O)c1-c1ccc(Cl)c(Cl)c1 [Compound 6, 2-(3,4-dichlorophenyl)-1-ethyl-4-oxo-6-[[4-(trifluoromethyl)phenyl]methyl]pyridine-3-carboxylic acid]
0: Pre-emergence Test, percentage damage caused to the plant (five-point scale), ECHCG ([1]; Rate 1000 g/Ha) | Pre-emergence Test, percentage damage caused to the plant (five-point scale), ZEAMX (Zea mays (ZEAMX) [3]; Rate 1000 g/Ha) | Pre-emergence Test, percentage damage caused to the plant (five-point scale), IPOHE ([4]; Rate 1000 g/Ha)

CCn1c(Cc2nccc(OC)n2)cc(=O)c(C(=O)O)c1-c1ccc(Cl)c(Cl)c1 [Compound 20, 2-(3,4-dichlorophenyl)-1-ethyl-6-[(4-methoxypyrimidin-2-yl)methyl]-4-oxo-pyridine-3-carboxylic acid]
0: Pre-emergence Test, percentage damage caused to the plant (five-point scale), ECHCG ([1]; Rate 250 g/Ha) | Pre-emergence Test, percentage damage caused to the plant (five-point scale), AMAPA ([5]; Rate 250 g/Ha) | Pre-emergence Test, percentage damage caused to the plant (five-point scale), ZEAMX (Zea mays (ZEAMX) [3]; Rate 250 g/Ha) | Pre-emergence Test, percentage damage caused to the plant (five-point scale), AMARE ([6]; Rate 250 g/Ha)

CCn1c(Cc2ccnc(C(F)(F)F)c2)cc(=O)c(C(=O)O)c1-c1ccc(Cl)c(Cl)c1 [Compound 21, 2-(3,4-dichlorophenyl)-1-ethyl-4-oxo-6-[[2-(trifluoromethyl)-4-pyridyl]methyl]pyridine-3-carboxylic acid]
0: percentage damage caused to the plant, AMARE ([2]; rate 250 g/Ha) | percentage damage caused to the plant, AMAPA [7]

CCn1c(Cc2ncccn2)cc(=O)c(C(=O)O)c1-c1ccc(Cl)c(Cl)c1 [Compound 22, 2-(3,4-dichlorophenyl)-1-ethyl-4-oxo-6-(pyrimidin-2-ylmethyl)pyridine-3-carboxylic acid]
0: Pre-emergence Test, percentage damage caused to the plant (five-point scale), ECHCG ([1]; Rate 250 g/Ha) | Pre-emergence Test, percentage damage caused to the plant (five-point scale), AMAPA ([5]; Rate 250 g/Ha) | Pre-emergence Test, percentage damage caused to the plant (five-point scale), ZEAMX (Zea mays (ZEAMX) [3]; Rate 250 g/Ha) | Pre-emergence Test, percentage damage caused to the plant (five-point scale), AMARE ([6]; Rate 250 g/Ha)

CCn1c(Cc2ccc(OC(F)(F)F)cc2)cc(=O)c(C(=O)O)c1-c1ccc(Cl)c(Cl)c1 [Compound 26, 2-(3,4-dichlorophenyl)-1-ethyl-4-oxo-6-[[4-(trifluoromethoxy)phe-nyl]methyl]pyridine-3-carboxylic acid]
0: percentage damage caused to the plant, ECHCG ([8]; rate 1000 g/Ha) | percentage damage caused to the plant, ZEAMX (Zea mays (ZEAMX) [9]; rate 1000 g/Ha)

CCn1c(Cc2ccc(OC)nc2)cc(=O)c(C(=O)O)c1-c1ccc(Cl)c(Cl)c1 [Compound 40, 2-(3,4-dichlorophenyl)-1-ethyl-6-[(6-methoxy-3-pyridyl)methyl]-4-oxo-pyridine-3-carboxylic acid]
0: percentage damage caused to the plant, ECHCG ([8]; rate 250 g/Ha) | Pre-emergence Test, percentage damage caused to the plant (five-point scale), ECHCG ([1]; Rate 250 g/Ha) | Pre-emergence Test, percentage damage caused to the plant (five-point scale), ZEAMX (Zea mays (ZEAMX) [3]; Rate 250 g/Ha) | Pre-emergence Test, percentage damage caused to the plant (five-point scale), IPOHE ([4]; Rate 250 g/Ha)

CCn1c(Cc2cncc(Cl)n2)cc(=O)c(C(=O)O)c1-c1ccc(Cl)c(Cl)c1 [Compound 43, 6-[(6-chloropyrazin-2-yl)methyl]-2-(3,4-dichlorophenyl)-1-ethyl-4-oxo-pyridine-3-carboxylic acid]
0: Pre-emergence Test, percentage damage caused to the plant (five-point scale), AMAPA ([5]; Rate 250 g/Ha) | Pre-emergence Test, percentage damage caused to the plant (five-point scale), ZEAMX (Zea mays (ZEAMX) [3]; Rate 250 g/Ha) | percentage damage caused to the plant, AMAPA [7]

CCn1c(Cc2cc(=O)[nH]cn2)cc(=O)c(C(=O)O)c1-c1ccc(Cl)c(Cl)c1 [Compound 45, 2-(3,4-dichlorophenyl)-1-ethyl-4-oxo-6-[(6-oxo-1H-pyrimidin-4-yl)methyl]pyridine-3-carboxylic acid]
0: percentage damage caused to the plant, ECHCG ([8]; rate 250 g/Ha) | Pre-emergence Test, percentage damage caused to the plant (five-point scale), ECHCG ([1]; Rate 250 g/Ha) | Pre-emergence Test, percentage damage caused to the plant (five-point scale), AMAPA ([5]; Rate 250 g/Ha) | Pre-emergence Test, percentage damage caused to the plant (five-point scale), ZEAMX (Zea mays (ZEAMX) [3]; Rate 250 g/Ha) | Pre-emergence Test, percentage damage caused to the plant (five-point scale), AMARE ([6]; Rate 250 g/Ha)

CCn1c(Cc2ccc(C(=O)OC)cn2)cc(=O)c(C(=O)O)c1-c1ccc(Cl)c(Cl)c1 [Compound 46, 2-(3,4-dichlorophenyl)-1-ethyl-6-[(5-methoxycarbonyl-2-pyridyl)methyl]-4-oxo-pyridine-3-carboxylic acid]
0: percentage damage caused to the plant, ECHCG ([8]; rate 250 g/Ha) | Pre-emergence Test, percentage damage caused to the plant (five-point scale), ZEAMX (Zea mays (ZEAMX) [3]; Rate 250 g/Ha)

CCn1c(Cc2ccc(S(C)(=O)=O)cc2)cc(=O)c(C(=O)O)c1-c1ccc(Cl)c(Cl)c1 [Compound 72, 2-(3,4-dichlorophenyl)-1-ethyl-6-[(4-methylsulfonylphenyl)methyl]-4-oxo-pyridine-3-carboxylic acid]
0: percentage damage caused to the plant, ECHCG ([8]; rate 250 g/Ha) | percentage damage caused to the plant, ZEAMX (Zea mays (ZEAMX) [9]; rate 250 g/Ha) | Pre-emergence Test, percentage damage caused to the plant (five-point scale), ECHCG ([1]; Rate 250 g/Ha) | Pre-emergence Test, percentage damage caused to the plant (five-point scale), IPOHE ([4]; Rate 250 g/Ha)

CCn1c(Cc2cc(OC)ccc2F)cc(=O)c(C(=O)O)c1-c1ccc(Cl)c(Cl)c1 [Compound 90, 2-(3,4-dichlorophenyl)-1-ethyl-6-[(2-fluoro-5-methoxy-phenyl)methyl]-4-oxo-pyridine-3-carboxylic acid]
0: percentage damage caused to the plant, ECHCG ([8]; rate 1000 g/Ha) | percentage damage caused to the plant, ZEAMX (Zea mays (ZEAMX) [9]; rate 1000 g/Ha) | Pre-emergence Test, percentage damage caused to the plant (five-point scale), AMAPA ([5]; Rate 1000 g/Ha) | Pre-emergence Test, percentage damage caused to the plant (five-point scale), ZEAMX (Zea mays (ZEAMX) [3]; Rate 1000 g/Ha) | Pre-emergence Test, percentage damage caused to the plant (five-point scale), AMARE ([6]; Rate 1000 g/Ha)

CCn1c(Cc2ncc(SC)cn2)cc(=O)c(C(=O)O)c1-c1ccc(Cl)c(Cl)c1 [Compound 99, 2-(3,4-dichlorophenyl)-1-ethyl-6-[(5-methylsulfanylpyrimidin-2-yl)methyl]-4-oxo-pyridine-3-carboxylic acid]
0: Pre-emergence Test, percentage damage caused to the plant (five-point scale), ECHCG ([1]; Rate 250 g/Ha) | Pre-emergence Test, percentage damage caused to the plant (five-point scale), ZEAMX (Zea mays (ZEAMX) [3]; Rate 250 g/Ha) | Pre-emergence Test, percentage damage caused to the plant (five-point scale), IPOHE ([4]; Rate 250 g/Ha)

CCn1c(Cc2ccc(C#N)c(F)n2)cc(=O)c(C(=O)O)c1-c1ccc(Cl)c(Cl)c1 [Compound 112, 6-[(5-cyano-6-fluoro-2-pyridyl)methyl]-2-(3,4-dichlorophenyl)-1-ethyl-4-oxo-pyridine-3-carboxylic acid]
0: Pre-emergence Test, percentage damage caused to the plant (five-point scale), ECHCG ([1]; Rate 62.5 g/Ha) | Pre-emergence Test, percentage damage caused to the plant (five-point scale), AMAPA ([5]; Rate 62.5 g/Ha) | Pre-emergence Test, percentage damage caused to the plant (five-point scale), ZEAMX (Zea mays (ZEAMX) [3]; Rate 62.5 g/Ha) | Pre-emergence Test, percentage damage caused to the plant (five-point scale), IPOHE ([4]; Rate 62.5 g/Ha) | Pre-emergence Test, percentage damage caused to the plant (five-point scale), AMARE ([6]; Rate 62.5 g/Ha)

CCn1c(Cc2cccc(C(C)=O)n2)cc(=O)c(C(=O)O)c1-c1ccc(Cl)c(Cl)c1 [Compound 116, 6-[(6-acetyl-2-pyridyl)methyl]-2-(3,4-dichlorophenyl)-1-ethyl-4-oxo-pyridine-3-carboxylic acid]
0: percentage damage caused to the plant, AMAPA [7] | Pre-emergence Test, percentage damage caused to the plant (five-point scale), IPOHE ([4]; Rate 250 g/Ha)

CCn1c(Cc2nc(OC)cc(OC)n2)cc(=O)c(C(=O)O)c1-c1ccc(Cl)c(Cl)c1 [Compound 126, 2-(3,4-dichlorophenyl)-6-[(4,6-dimethoxypyrimidin-2-yl)methyl]-1-ethyl-4-oxo-pyridine-3-carboxylic acid]
0: percentage damage caused to the plant, AMARE ([2]; rate 250 g/Ha) | Pre-emergence Test, percentage damage caused to the plant (five-point scale), ZEAMX (Zea mays (ZEAMX) [3]; Rate 250 g/Ha) | percentage damage caused to the plant, AMAPA [7]

CCn1c(Cc2nc(C(=O)OC)co2)cc(=O)c(C(=O)O)c1-c1ccc(Cl)c(Cl)c1 [Compound 148, 2-(3,4-dichlorophenyl)-1-ethyl-6-[(4-methoxycarbonyloxazol-2-yl)methyl]-4-oxo-pyridine-3-carboxylic acid]
0: percentage damage caused to the plant, ZEAMX (Zea mays (ZEAMX) [9]; rate 250 g/Ha) | Pre-emergence Test, percentage damage caused to the plant (five-point scale), ECHCG ([1]; Rate 250 g/Ha) | Pre-emergence Test, percentage damage caused to the plant (five-point scale), ZEAMX (Zea mays (ZEAMX) [3]; Rate 250 g/Ha) | percentage damage caused to the plant, AMAPA [7] | Pre-emergence Test, percentage damage caused to the plant (five-point scale), IPOHE ([4]; Rate 250 g/Ha)

CCn1c(Cc2cnc(C3CC3)nc2)cc(=O)c(C(=O)O)c1-c1ccc(Cl)c(Cl)c1 [Compound 151, 6-[(2-cyclopropylpyrimidin-5-yl)methyl]-2-(3,4-dichlorophenyl)-1-ethyl-4-oxo-pyridine-3-carboxylic acid]
0: percentage damage caused to the plant, ZEAMX (Zea mays (ZEAMX) [9]; rate 250 g/Ha) | Pre-emergence Test, percentage damage caused to the plant (five-point scale), ECHCG ([1]; Rate 250 g/Ha) | Pre-emergence Test, percentage damage caused to the plant (five-point scale), ZEAMX (Zea mays (ZEAMX) [3]; Rate 250 g/Ha) | percentage damage caused to the plant, AMAPA [7] | Pre-emergence Test, percentage damage caused to the plant (five-point scale), IPOHE ([4]; Rate 250 g/Ha)
